Reference: ChEMBL document CHEMBL5550108, “Exploiting high-energy hydration sites for the discovery of potent peptide aldehyde inhibitors of the SARS-CoV-2 main protease with cellular antiviral activity” (Bioorg Med Chem, 2024)

tested on: SARS-CoV-2; assay: Selectivity ratio of EC50 for antiviral activity against SARS-CoV-2 USA-WA1/2020 infected in human HeLa cells harbouring ACE2 to IC50 for inhibition of C terminal 6 his tagged SARS-CoV-2 main protease expressed in Escherichia coli BL-21-Gold(DE3) cells; assay type: functional; details: not given

Point of comparison: `O=C[C@H](C[C@@H]1CCNC1=O)NC(=O)[C@@H]1C[C@@H](C2CCCCC2)CN1C(=O)c1cc2ccccc2[nH]1`, Selectivity ratio 30. Against it:
- CC1(C)C[C@@H](C(=O)N[C@H](C=O)C[C@@H]2CCNC2=O)N(C(=O)c2cc3ccccc3[nH]2)C1 — the same, 30
- O=C[C@H](C[C@@H]1CCNC1=O)NC(=O)[C@@H]1CC2(CC2)CN1C(=O)c1cc2ccccc2[nH]1 — the same, 30
- CC1(C)[C@@H]2[C@@H](C(=O)N[C@H](C=O)C[C@@H]3CCNC3=O)N(C(=O)c3cc4ccccc4[nH]3)C[C@@H]21 — the same, 30

tested on: SARS-CoV-2; assay: Antiviral activity against SARS-CoV-2 USA-WA1/2020 infected in human HeLa cells harbouring ACE2 assessed as reduction in cytopathic effect pretreated with cells followed by viral infection and measured after 24 hrs by fluorescence based analysis; assay type: functional, organism-based; details: Severe acute respiratory syndrome coronavirus 2, USA-WA1/2020, HeLa

Point of comparison: `Cc1cccc2cc(C(=O)N3C[C@H]4[C@@H]([C@H]3C(=O)N[C@H](C=O)C[C@@H]3CCNC3=O)C4(C)C)[nH]c12`, EC50 1.3 µM. Against it:
- CC(C)(C(=O)N1C[C@H]2[C@@H]([C@H]1C(=O)N[C@H](C=O)C[C@@H]1CCNC1=O)C2(C)C)c1ccccc1 — 3.8-fold lower, 0.343 µM
- Cc1cccc2[nH]c(C(=O)N3C[C@H]4[C@@H]([C@H]3C(=O)N[C@H](C=O)C[C@@H]3CCNC3=O)C4(C)C)cc12 — within 1.5-fold, 1.4 µM
- CC1(C)[C@@H]2[C@@H](C(=O)N[C@H](C=O)C[C@@H]3CCNC3=O)N(C(=O)C3(c4ccccc4)CC3)C[C@@H]21 — 6.6-fold lower, 0.196 µM
- CC1(C)[C@@H]2[C@@H](C(=O)N[C@H](C=O)C[C@@H]3CCNC3=O)N(C(=O)c3cc4c(C#N)cccc4[nH]3)C[C@@H]21 — 6.5-fold higher, 8.5 µM
- CC1(C)[C@@H]2[C@@H](C(=O)N[C@H](C=O)C[C@@H]3CCNC3=O)N(C(=O)C3(c4cccc(Cl)c4)CC3)C[C@@H]21 — 14-fold lower, 0.09 µM
- CC(C)(C)CC(=O)N1C[C@H]2[C@@H]([C@H]1C(=O)N[C@H](C=O)C[C@@H]1CCNC1=O)C2(C)C — within 1.5-fold, 1.1 µM
- CC1(C)[C@@H]2[C@@H](C(=O)N[C@H](C=O)C[C@@H]3CCNC3=O)N(C(=O)C3(c4ccccc4)CCCC3)C[C@@H]21 — 12-fold lower, 0.11 µM
- CC1(C)[C@@H]2[C@@H](C(=O)N[C@H](C=O)C[C@@H]3CCNC3=O)N(C(=O)CC3CCCCC3)C[C@@H]21 — 3.8-fold lower, 0.34 µM
- CC1(C)[C@@H]2[C@@H](C(=O)N[C@H](C=O)C[C@@H]3CCNC3=O)N(C(=O)Cc3ccccc3)C[C@@H]21 — 2.5-fold lower, 0.53 µM
- CC(C)c1ccc(F)c2[nH]c(C(=O)N3C[C@H]4[C@@H]([C@H]3C(=O)N[C@H](C=O)C[C@@H]3CCNC3=O)C4(C)C)cc12 — 11-fold lower, 0.12 µM
- CC1(C)[C@@H]2[C@@H](C(=O)N[C@H](C=O)C[C@@H]3CCNC3=O)N(C(=O)c3cc4c(F)cccc4[nH]3)C[C@@H]21 — within 1.5-fold, 1.8 µM
- CC1(C)[C@@H]2[C@@H](C(=O)N[C@H](C=O)C[C@@H]3CCNC3=O)N(C(=O)c3cc4ccc(F)cc4[nH]3)C[C@@H]21 — within 1.5-fold, 1.8 µM
- CC(C)Oc1cccc2[nH]c(C(=O)N3C[C@H]4[C@@H]([C@H]3C(=O)N[C@H](C=O)C[C@@H]3CCNC3=O)C4(C)C)cc12 — 5.2-fold lower, 0.25 µM
- CC(C)c1ccc(Cl)c2[nH]c(C(=O)N3C[C@H]4[C@@H]([C@H]3C(=O)N[C@H](C=O)C[C@@H]3CCNC3=O)C4(C)C)cc12 — 4.8-fold lower, 0.27 µM
- CC1(C)[C@@H]2[C@@H](C(=O)N[C@H](C=O)C[C@@H]3CCNC3=O)N(C(=O)c3cc4cccc(C#N)c4[nH]3)C[C@@H]21 — 3.2-fold lower, 0.41 µM
- O=C[C@H](C[C@@H]1CCNC1=O)NC(=O)[C@@H]1C[C@@H](C2CCCCC2)CN1C(=O)c1cc2ccccc2[nH]1 — 1.7-fold lower, 0.77 µM
- CC1(C)[C@@H]2[C@@H](C(=O)N[C@H](C=O)C[C@@H]3CCNC3=O)N(C(=O)c3cc4cc(F)ccc4[nH]3)C[C@@H]21 — 3.1-fold higher, 4 µM
- CC1(C)[C@@H]2[C@@H](C(=O)N[C@H](C=O)C[C@@H]3CCNC3=O)N(C(=O)c3cc4cccc(F)c4[nH]3)C[C@@H]21 — 1.8-fold lower, 0.72 µM
- Cc1cccc([C@@H](C)C(=O)N2C[C@H]3[C@@H]([C@H]2C(=O)N[C@H](C=O)C[C@@H]2CCNC2=O)C3(C)C)c1 — 7.6-fold lower, 0.17 µM
- CCc1cccc2[nH]c(C(=O)N3C[C@H]4[C@@H]([C@H]3C(=O)N[C@H](C=O)C[C@@H]3CCNC3=O)C4(C)C)cc12 — 2.1-fold lower, 0.63 µM
- COc1cccc2cc(C(=O)N3C[C@H]4[C@@H]([C@H]3C(=O)N[C@H](C=O)C[C@@H]3CCNC3=O)C4(C)C)[nH]c12 — the same, 1.3 µM
- CC1(C)C[C@@H](C(=O)N[C@H](C=O)C[C@@H]2CCNC2=O)N(C(=O)c2cc3ccccc3[nH]2)C1 — 5.5-fold higher, 7.1 µM
- O=C[C@H](C[C@@H]1CCNC1=O)NC(=O)[C@@H]1CC2(CC2)CN1C(=O)c1cc2ccccc2[nH]1 — 7.1-fold higher, 9.2 µM
- COc1cccc2[nH]c(C(=O)N3C[C@H]4[C@@H]([C@H]3C(=O)N[C@H](C=O)C[C@@H]3CCNC3=O)C4(C)C)cc12 — 6.8-fold higher, 8.8 µM
- CC(C)(C)CCC(=O)N1C[C@H]2[C@@H]([C@H]1C(=O)N[C@H](C=O)C[C@@H]1CCNC1=O)C2(C)C — 1.9-fold lower, 0.69 µM
- CC1CCC(CC(=O)N2C[C@H]3[C@@H]([C@H]2C(=O)N[C@H](C=O)C[C@@H]2CCNC2=O)C3(C)C)CC1 (some centres undefined) — 8.1-fold lower, 0.16 µM
- CC1(C)[C@@H]2[C@@H](C(=O)N[C@H](C=O)C[C@@H]3CCNC3=O)N(C(=O)c3cc4cccc(Cl)c4[nH]3)C[C@@H]21 — 4.3-fold lower, 0.3 µM
- CC(C)c1cccc2[nH]c(C(=O)N3C[C@H]4[C@@H]([C@H]3C(=O)N[C@H](C=O)C[C@@H]3CCNC3=O)C4(C)C)cc12 — 3.5-fold lower, 0.37 µM
- CC1(C)[C@@H]2[C@@H](C(=O)N[C@H](C=O)C[C@@H]3CCNC3=O)N(C(=O)C3(O)CCCCC3)C[C@@H]21 — 1.7-fold higher, 2.2 µM
- C[C@@H](C(=O)N1C[C@H]2[C@@H]([C@H]1C(=O)N[C@H](C=O)C[C@@H]1CCNC1=O)C2(C)C)c1ccccc1 — 4.3-fold lower, 0.3 µM
- C[C@H](C(=O)N1C[C@H]2[C@@H]([C@H]1C(=O)N[C@H](C=O)C[C@@H]1CCNC1=O)C2(C)C)C1CCCCC1 — 2.8-fold lower, 0.47 µM
- C[C@@H](C(=O)N1C[C@H]2[C@@H]([C@H]1C(=O)N[C@H](C=O)C[C@@H]1CCNC1=O)C2(C)C)C1CCCCC1 — 4.3-fold lower, 0.3 µM
- CC1(C)[C@@H]2[C@@H](C(=O)N[C@H](C=O)C[C@@H]3CCNC3=O)N(C(=O)c3cc4cccc(C(F)(F)F)c4[nH]3)C[C@@H]21 — 5.4-fold lower, 0.24 µM
- CC1(C)[C@@H]2[C@@H](C(=O)N[C@H](C=O)C[C@@H]3CCNC3=O)N(C(=O)c3cc4ccccc4[nH]3)C[C@@H]21 — 1.9-fold higher, 2.5 µM
